Assay [1] relates to human pancreatic cancer BxPC-3 tumor cells. In words: Human xenograft mouse animal model, pancreatic cancer BxPC-3. It counts as in vivo. To be noted: 80 mg/kg intraperitoneally, starting 28 days after inoculation; compared to vehicle control group; FIG. 5. As to the method:
The anti cancer activity of a compound according to the invention, 6-[3-(1-adamantyl)-4,5-methylenedioxyphenyl]-2-naphthoic acid was also evaluated in a human xenograft mouse animal model containing human pancreatic cancer BxPC-3 tumor cells. Starting twenty-eight days after inoculation of tumor cells, said xenograft containing mice were administered the retinoid compound intraperitoneally at a dosage of 80 mg/kg body weight. Also, a control group of said mice was inoculated under similar conditions with the pharmaceutical vehicle used for formulation (but lacking the retinoid compound).
For orientation: A xenograft is tissue or cells of one species grown in another, often human tumour cells in immunodeficient mice.

The test system of another assay is cancer cells. Briefly: List of active compounds: types of cancers and precancers active against. It counts as cell-based. From the text:
As discussed, the adamantyl retinoid derivatives according to the invention which induce apoptosis are useful for treating many different types of cancers.

Assay [2] concerns human cervical cancer cell lines (C33A cells and Caski cells). In words: Proliferation of human cervical cancer cell lines (Example 33, FIG. 7). It counts as cell-based. As to the method:
Another experiment was also conducted to compare the effect of three different retinoid compounds according to the invention, i.e., 6-[3-(1-adamantyl)-4-methoxyphenyl]-2-naphthoic acid, 2-[3-(1-adamantyl)-4-methoxyphenyl]-5-benzimidazole carboxylic acid, and 6-[3-(1-adamantyl)-4,5-methylenedioxyphenyl]-2-naphthoic acid, a control (DMSO), and a control retinoid (all-trans retinoic acid) on the proliferation of several human cervical cancer cell lines (C33A cells and Caski cells).

Assay [3] relates to various human cancer cell lines. Briefly: Anti-cancer activity against human cancer cell lines over a concentration range (FIGS. 2-4). To be noted: retinoid concentrations 10^−9 M to 10^−5 M. It counts as cell-based. The text has this:
FIG. 2 compares the activity of selected adamantyl retinoids according to the invention and all-trans-retinoic acid against a human non-small lung carcinoma cell line.
FIG. 3 compares the activity of selected adamantyl retinoids according to the invention and all-trans-retinoic acid against human prostate adenocarcinoma, human metastatic prostate adenocarcinoma, and human prostate carcinoma cell lines.
FIG. 4 compares the activity of selected adamantyl retinoids according to the invention and all-trans-retinoic acid against a human liver cancer cell line.

“Also recorded” adds a separate entry of the source.

On to `O=C(O)c1ccc2cc(-c3cc4c(c(C56CC7CC(CC(C7)C5)C6)c3)OCO4)ccc2c1` [Compound 6, 6-[3-(1-adamantyl)-4,5-methylenedioxyphenyl]-2-naphthoic acid], for which, in assay [1], the tumor size result is recorded as “substantial reduction in tumor size”. In addition, the “Types of Cancers and Precancers Active Against” value in the assay with cancer cells was “brain, breast, head and neck,; also recorded: kidney, leukemia, lung, lym-; also recorded: phoma, myeloma, ovarian,; also recorded: prostate, skin, liver, cervical; also recorded: (including, e.g., cervical; also recorded: intraepithelial neoplasia I, II,; also recorded: III),”. In addition, in assay [2], the “effect on proliferation of human cervical cell lines” value is “strong inhibitory effect”. The anti-cancer activity entry in assay [3] was “significant anti-cancer activity”.

The values are drawn from patent publication US6462064B1, “Apoptosis inducing adamantyl derivatives and their usage as anti-cancer agents, especially for cervical cancers and dysplasias” (Galderma Research & Development S.N.C., priority 1996, dated 2002).
